Test results as given in PMC12655172, “Borylated 5-Membered Ring Iminosugars: Synthesis and Biological Evaluation for Glycosidase Inhibition and Anticancer Properties for Application in Boron Neutron Capture Therapy (BNCT)—Part 2” (Pharmaceuticals, 2025).

Legend:
[1] = system: T1, α-D-mannosidase (Jack bean); assay: Glycosidase inhibition (Table 2 panel); assay type: biochemical
T1 construct: purchased Sigma-Aldrich; host or cells: Jack bean
Description: (§1) The enzymes α-D-glucosidase (yeast), β-D-glucosidases (almond, bovine liver), α-D-galactosidase (coffee beans), β-D-galactosidase (bovine liver), α-D-mannosidase (Jack bean), β-D-mannosidase (snail), α-L-rhamnosidase (P. decumbens), α-L-fucosidase (bovine kidney), trehalase (porcine kidney), β-D-glucuronidases (E. coli, bovine liver), amyloglucosidase (A. niger), para-nitrophenyl glycosides, and various disaccharides were purchased from Sigma-Aldrich Co (St. Louis, MO, USA).
(§2) Brush border membranes were prepared from the rat small intestine according to the method of Kessler et al., and were assayed at pH 6.8 for rat intestinal maltase using maltose. For rat intestinal maltase, porcine kidney trehalase, and A. niger amyloglucosidase activities, the reaction mixture contained maltose (25 μM) and the appropriate amount of enzyme, and the incubations were performed for 10–30 min at 37 °C. The reaction was stopped by heating at 100 °C for 3 min. After centrifugation (600 g; 10 min), the resulting reaction mixture was added to the Glucose CII-test Wako (Wako Pure Chemical Ind., Osaka, Japan). The absorbance at 505 nm was measured to determine the amount of the released D-glucose. Other glycosidase activities were determined using an appropriate para-nitrophenyl glycoside as substrate at the optimum pH of each enzyme. The reaction mixture contained the substrate ([…]) and the appropriate amount of enzyme. The reaction was stopped by the addition of Na2CO3 ([…]). The released para-nitrophenol was measured spectrometrically at 400 nm. All reactions were run in […].

[2] = system: T2, α-D-galactosidase (coffee beans); assay: Glycosidase inhibition (Table 2 panel); assay type: biochemical
T2 construct: purchased Sigma-Aldrich; host or cells: coffee beans
Description: as §1, §2

[3] = target: α-D-glucosidase (rice) (Oryza sativa subsp. japonica, UniProt Q653V7); assay: Glycosidase inhibition (Table 2 panel); assay type: biochemical
Chain of α-D-glucosidase (rice) (Q653V7 34-885): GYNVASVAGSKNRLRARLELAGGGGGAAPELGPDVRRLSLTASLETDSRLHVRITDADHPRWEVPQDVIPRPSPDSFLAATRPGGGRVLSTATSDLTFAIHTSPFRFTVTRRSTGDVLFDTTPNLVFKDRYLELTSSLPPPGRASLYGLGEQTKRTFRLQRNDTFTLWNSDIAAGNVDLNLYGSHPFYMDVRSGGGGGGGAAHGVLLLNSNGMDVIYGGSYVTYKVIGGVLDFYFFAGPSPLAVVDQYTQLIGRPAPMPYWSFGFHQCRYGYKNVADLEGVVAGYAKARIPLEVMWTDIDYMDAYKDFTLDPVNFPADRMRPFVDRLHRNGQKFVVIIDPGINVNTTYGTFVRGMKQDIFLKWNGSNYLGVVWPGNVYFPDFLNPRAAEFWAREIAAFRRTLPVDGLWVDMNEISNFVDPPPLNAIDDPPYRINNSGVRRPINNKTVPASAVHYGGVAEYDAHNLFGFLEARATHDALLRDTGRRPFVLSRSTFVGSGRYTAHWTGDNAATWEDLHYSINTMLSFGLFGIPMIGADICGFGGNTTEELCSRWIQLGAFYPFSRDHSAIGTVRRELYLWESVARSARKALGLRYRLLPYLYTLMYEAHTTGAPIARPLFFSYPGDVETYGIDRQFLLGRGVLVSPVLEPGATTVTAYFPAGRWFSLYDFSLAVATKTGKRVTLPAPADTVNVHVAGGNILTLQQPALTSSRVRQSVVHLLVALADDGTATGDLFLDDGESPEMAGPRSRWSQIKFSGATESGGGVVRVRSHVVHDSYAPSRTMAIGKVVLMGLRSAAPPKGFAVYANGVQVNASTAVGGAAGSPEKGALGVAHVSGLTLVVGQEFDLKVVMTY
Description: as §1, §2

[4] = system: β-D-glucosidase (almond); assay: Glycosidase inhibition (Table 2 panel); assay type: biochemical
Description: as §1, §2

[5] = system: α-D-glucosidase (rat intestinal maltase); assay: Glycosidase inhibition (Table 2 panel); assay type: biochemical
Description: as §1, §2

[6] = system: α-L-rhamnosidase (P. decumbens); assay: Glycosidase inhibition (Table 2 panel); assay type: biochemical
Description: as §1, §2

[7] = system: T3, trehalase (porcine kidney); assay: Glycosidase inhibition (Table 2 panel); assay type: biochemical
T3 construct: purchased Sigma-Aldrich; host or cells: porcine kidney
Description: as §1, §2

[8] = system: β-D-mannosidase (snail); assay: Glycosidase inhibition (Table 2 panel); assay type: biochemical
Description: as §1, §2

[9] = system: β-D-glucuronidase (bovine liver); assay: Glycosidase inhibition (Table 2 panel); assay type: biochemical
Description: as §1, §2

[10] = target: T4, β-D-glucosidase (bovine liver) (Bos taurus, UniProt F1MNT6); assay: Glycosidase inhibition (Table 2 panel); assay type: biochemical
T4 sequence (F1MNT6 1-469): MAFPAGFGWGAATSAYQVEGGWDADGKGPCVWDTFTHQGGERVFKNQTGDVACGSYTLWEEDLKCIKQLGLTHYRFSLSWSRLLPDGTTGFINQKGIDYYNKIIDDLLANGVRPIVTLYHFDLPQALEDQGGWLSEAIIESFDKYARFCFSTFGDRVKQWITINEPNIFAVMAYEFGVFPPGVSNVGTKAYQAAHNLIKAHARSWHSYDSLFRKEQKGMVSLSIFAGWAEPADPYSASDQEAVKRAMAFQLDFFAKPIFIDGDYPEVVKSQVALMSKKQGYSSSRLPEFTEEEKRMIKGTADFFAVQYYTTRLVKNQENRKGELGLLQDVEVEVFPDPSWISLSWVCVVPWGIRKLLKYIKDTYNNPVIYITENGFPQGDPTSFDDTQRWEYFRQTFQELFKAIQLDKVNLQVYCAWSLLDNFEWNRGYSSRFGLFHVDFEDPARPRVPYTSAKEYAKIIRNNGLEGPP
Description: as §1, §2

[11] = system: MCF10A (non-tumour derived normal breast cell line); assay: Cancer screening, MTT growth inhibition; assay type: cell-based; conditions: 72 h; for inhibition at 25 µM / GI50: Homo sapiens, MCF-10A; for inhibition at 25 µM: read-out: DOSE SCREEN percentage (%) cell growth inhibition MCF10A Breast (normal); for GI50: read-out: DOSE RESPONSE GI50 MCF10A Breast (normal)
[12] = target: T5, α-D-glucosidase (yeast) (Saccharomyces cerevisiae, UniProt P53341); assay: Glycosidase inhibition (Table 3 panel); assay type: biochemical; conditions: 1 mg/mL aqueous solution, run in water; for inhibition at 1000 µg/mL (stock): read-out: Percentage inhibition α-D-Glucosidase Yeast
T5 construct: purchased Sigma-Aldrich
T5 sequence (P53341 whole entry): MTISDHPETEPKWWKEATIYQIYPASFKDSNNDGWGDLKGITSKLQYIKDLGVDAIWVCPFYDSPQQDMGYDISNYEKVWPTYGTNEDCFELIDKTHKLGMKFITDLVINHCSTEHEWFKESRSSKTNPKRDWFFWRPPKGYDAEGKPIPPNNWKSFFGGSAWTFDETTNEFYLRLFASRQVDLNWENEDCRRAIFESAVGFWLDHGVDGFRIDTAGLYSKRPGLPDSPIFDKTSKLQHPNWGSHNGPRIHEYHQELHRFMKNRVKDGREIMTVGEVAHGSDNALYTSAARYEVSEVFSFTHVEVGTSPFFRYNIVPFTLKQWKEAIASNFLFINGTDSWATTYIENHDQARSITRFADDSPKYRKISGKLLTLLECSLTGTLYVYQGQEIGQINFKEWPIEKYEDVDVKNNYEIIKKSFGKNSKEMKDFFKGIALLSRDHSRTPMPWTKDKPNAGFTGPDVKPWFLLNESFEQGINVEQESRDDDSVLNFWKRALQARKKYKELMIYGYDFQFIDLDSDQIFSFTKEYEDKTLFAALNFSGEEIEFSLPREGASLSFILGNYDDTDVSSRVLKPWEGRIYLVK
Description: All enzymes and para-nitrophenyl substrates were purchased from Sigma. Enzymes were assayed at 27 °C in citric acid (0.1 M)/disodium hydrogen phosphate (0.2 M) buffers at the optimum pH for the enzyme. The incubation mixture consisted of […] of 1 mg/mL aqueous solution of extract and […] of the appropriate 5 μM para-nitrophenyl substrate made up in buffer at the optimum pH for the enzyme. […] Assays were carried out in triplicate, and the values given are means of the three replicates per assay. All reactions were run in water.

[13] = Sample appearance on sample preparation in water; assay type: physicochemical; conditions: 1 mL of water was added to 1 mg solid
[14] = system: T6, amyloglucosidase (A. niger); assay: Glycosidase inhibition (Table 2 panel); assay type: biochemical
T6 construct: purchased Sigma-Aldrich
Description: as §1
as §2, with “For rat intestinal maltase, porcine kidney trehalase, and A. niger amyloglucosidase activities, the reaction mixture contained maltose (25 μM) and the appropriate amount of enzyme, and the incubations were performed for 10–30 min at 37 °C.” left out, “The absorbance at 505 nm was measured to determine the amount of the released D-glucose.” left out

[15] = target: T5, α-D-glucosidase (yeast); assay: Glycosidase inhibition (Table 2 panel); assay type: biochemical
Description: as §1
as §2, with “For rat intestinal maltase, porcine kidney trehalase, and A. niger amyloglucosidase activities, the reaction mixture contained maltose (25 μM) and the appropriate amount of enzyme, and the incubations were performed for 10–30 min at 37 °C.” left out, “The absorbance at 505 nm was measured to determine the amount of the released D-glucose.” left out

[16] = system: T7, β-D-glucuronidase (E. coli); assay: Glycosidase inhibition (Table 2 panel); assay type: biochemical
T7 construct: purchased Sigma-Aldrich
Description: as §1
as §2, with “For rat intestinal maltase, porcine kidney trehalase, and A. niger amyloglucosidase activities, the reaction mixture contained maltose (25 μM) and the appropriate amount of enzyme, and the incubations were performed for 10–30 min at 37 °C.” left out, “The absorbance at 505 nm was measured to determine the amount of the released D-glucose.” left out

[17] = read-out: inhibition % α-D-Glucosidase Yeast
[18] = listed as of the 1000 μM series

Molecule | inhibition % α-D-Mannosidase Jack Bean ([1]; at 100 μM) | inhibition % α-D-Mannosidase Jack Bean ([1]; at 1000 μM) | inhibition % α-D-Galactosidase Coffee Beans ([2]; at 100 μM) | inhibition % α-D-Galactosidase Coffee Beans ([2]; at 1000 μM) | inhibition at 100 µM [3] | inhibition % β-D-Glucosidase Almond ([4]; at 100 μM) | inhibition % β-D-Glucosidase Almond ([4]; at 1000 μM) | inhibition % α-D-Glucosidase Rat Intestinal Maltase ([5]; at 100 μM) | inhibition % α-L-Rhamnosidase P. decumbens ([6]; at 100 μM) | inhibition % α-L-Rhamnosidase P. decumbens ([6]; at 1000 μM) | inhibition % Trehalase Porcine Kidney ([7]; at 100 μM) | inhibition % Trehalase Porcine Kidney ([7]; at 1000 μM) | inhibition % β-D-Mannosidase Snail ([8]; at 100 μM) | inhibition % β-D-Mannosidase Snail ([8]; at 1000 μM) | inhibition % β-D-Glucuronidase Bovine Liver ([9]; at 100 μM) | inhibition % β-D-Glucuronidase Bovine Liver ([9]; at 1000 μM) | inhibition at 100 µM [10] | inhibition at 25 µM ([11]; 25 µM of drug) | GI50 [11] | Sample Appearance [13] | other results
OB(O)c1ccccc1CN1C[C@@H](O)[C@H]2OC(O)[C@H](O)[C@H]21 (stereo partly drawn) [ortho 3, N-(2-Methylphenylboronic acid)-3,6-dideoxy-3,6-imino-D-gulofuranose] | ^cNI ^d(3.8%) | ^aNI ^b(0%) | ^cNI ^d(0%) | ^aNI ^b(0%) | 0% | ^cNI ^d(13.7%) | ^aNI ^b(38.8%) | ^cNI ^d(0%) | ^cNI ^d(0%) | ^aNI ^b(3.2%) | ^cNI ^d(0%) | ^aNI ^b(0%) | ^cNI ^d(0%) | ^aNI ^b(0%) | ^cNI ^d(2.9%) | ^aNI ^b(6.6%) | 0% | 9 ± 7% | > 50 µM | In solution | inhibition at 1000 µM ([3]; at 1000 μM): 0%; inhibition % α-D-Glucosidase Rat Intestinal Maltase ([5]; at 1000 μM): ^aNI ^b(0.7%); inhibition at 1000 µg/mL (stock) [12]: 4.1%; inhibition % Amyloglucosidase A. niger ([14]; at 100 μM): ^cNI ^d(0%); inhibition % Amyloglucosidase A. niger ([14]; at 1000 μM): ^aNI ^b(2.1%); inhibition at 100 µM [15, 17]: 2.9%; inhibition at 1000 µM [15, 17]: 1%; inhibition % β-D-Glucuronidase E. coli ([16]; at 100 μM): ^cNI ^d(0%); inhibition % β-D-Glucuronidase E. coli ([16]; at 1000 μM): ^aNI ^b(8.4%)
OC[C@H](O)[C@@H]1[C@H](O)[C@H](O)CN1Cc1ccccc1B(O)O [ortho 4, N-(2-Methylphenylboronic acid)-1,4-dideoxy-1,4-imino-L-gulitol] | ^cNI ^d(5.6%) | ^aNI ^b(0.4%) | ^cNI ^d(0%) | ^aNI ^b(2.7%) | 0% | ^cNI ^d(2.6%) | ^aNI ^b(40.1%) | ^cNI ^d(0%) | ^cNI ^d(4.9%) | ^aNI ^b(9.5%) | ^cNI ^d(0%) | ^aNI ^b(0%) | ^cNI ^d(5.3%) | ^aNI ^b(2.3%) | ^cNI ^d(0%) | ^aNI ^b(0.9%) | 3.3% | 8 ± 4% | > 50 µM | In solution | IC50 [3, 18]: 622 µM; inhibition at 1000 µM ([10]; at 1000 μM): 25.7%; inhibition at 1000 µg/mL (stock) [12]: -6.7%; inhibition % Amyloglucosidase A. niger ([14]; at 100 μM): ^cNI ^d(0%); inhibition % Amyloglucosidase A. niger ([14]; at 1000 μM): ^aNI ^b(0%); IC50 [15, 18]: 784 µM; inhibition at 100 µM [15, 17]: 0%; inhibition % β-D-Glucuronidase E. coli ([16]; at 100 μM): ^cNI ^d(0%); inhibition % β-D-Glucuronidase E. coli ([16]; at 1000 μM): ^aNI ^b(31.8%)
CC1(C)O[C@H]2O[C@H]3[C@@H]([C@H]2O1)N(Cc1ccccc1B(O)O)C[C@H]3O [ortho 5] | ^cNI ^d(12.9%) |  | ^cNI ^d(8.5%) |  | 6.7% | ^cNI ^d(2.7%) |  | ^cNI ^d(0%) | ^cNI ^d(0%) |  | ^cNI ^d(4.9%) |  | ^cNI ^d(7.0%) |  | ^cNI ^d(0%) |  | 13.4% | 7 ± 6% | > 50 µM | In solution | Percentage inhibition α-D-Glucosidase Yeast [12]: 11%; inhibition at 1000 µg/mL (stock) [12]: 8.7%; inhibition % Amyloglucosidase A. niger ([14]; at 100 μM): ^cNI ^d(4.9%); inhibition at 100 µM [15, 17]: 0%; inhibition % β-D-Glucuronidase E. coli ([16]; at 100 μM): ^cNI ^d(1.2%)
Borocaptate sodium [BSH, reference compound] |  | ^aNI ^b(7.9%) |  | ^aNI ^b(12.3%) |  |  | ^aNI ^b(0%) |  |  | ^aNI ^b(0.2%) |  | ^aNI ^b(4.2%) |  | ^aNI ^b(19.2%) |  | ^aNI ^b(19.6%) |  |  |  | In solution | inhibition % α-D-Glucosidase Rice ([3]; at 1000 μM): ^aNI ^b(0%); inhibition % α-D-Glucosidase Rat Intestinal Maltase ([5]; at 1000 μM): ^aNI ^b(0%); inhibition % β-D-Glucosidase Bovine Liver ([10]; at 1000 μM): ^aNI ^b(15%); DOSE SCREEN percentage (%) cell growth inhibition MCF10A Breast (normal) ([11]; 25 µM of drug): * 8 ± 3%; Percentage inhibition α-D-Glucosidase Yeast [12]: 59%; inhibition % Amyloglucosidase A. niger ([14]; at 1000 μM): ^aNI ^b(0%); inhibition % α-D-Glucosidase Yeast ([15]; at 1000 μM): ^aNI ^b(6.9%); inhibition % β-D-Glucuronidase E. coli ([16]; at 1000 μM): ^aNI ^b(6%)
